Format in all cases: cell-based
Assay [1] concerns the target T1, CFTR (F508del/MF-HBE cells) (Homo sapiens, UniProt P13569, DEL508-508).
T1 construct: human bronchial epithelial (HBE) cells derived from CF subjects heterozygous for F508del and a minimal function CFTR mutation (F508del/MF-HBE); endogenous in cells; host or cells: Primary human bronchial epithelial cells from CF subjects (F508del/MF genotype), differentiated at an air-liquid interface
Kind of assay: Ussing chamber assay of CFTR-mediated short-circuit currents, Assay A (0.1 μM to 25 μM, 6 concentrations). To be noted: with 33 nM potentiator and 18 μM Tezacaftor, 20% human serum; for Emax: 18-24 hours, read-out: A Max activity (%). The method, boiled down: (§1)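 Short-circuit current was recorded at 37 °C under voltage clamp (0 mV) with amiloride 30 μM apically, forskolin 20 μM activation, then BPO/GlyH-101/inh-172 (20 μM each) to isolate CFTR current. Before recording, corrector exposure lasted 18–24 h with 18 μM tezacaftor, 20% human serum, and 33 nM (dose–response) or 44 nM (1 μM fixed) potentiator, maintained throughout.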

Assay [2] has as its target T1, CFTR (F508del/MF-HBE cells). Put plainly: Ussing chamber assay of CFTR-mediated short-circuit currents, Assay B (0.00001 μM to 25 μM, 12 concentrations). To be noted: with 33 nM potentiator and 18 μM Tezacaftor, 20% human serum; for Emax: read-out: B Max activity (%). On the procedure:
Ussing chamber experiments were performed using human bronchial epithelial (HBE) cells derived from CF subjects heterozygous for F508del and a minimal function CFTR mutation (F508del/MF-HBE) and cultured as previously described (Neuberger T, Burton B, Clark H, Van Goor F Methods Mol Biol 2011:741:39-54). After four days the apical media was removed, and the cells were grown at an air liquid interface for >14 days prior to use.
To isolate the CFTR-mediated short-circuit (ISC) current, F508del/MF-HBE grown on Costar® Snapwell™ cell culture inserts were mounted in an Ussing chamber and the transepithelial ISC was measured under voltage-clamp recording conditions (Vhold=0 mV) at 37° C. The basolateral solution contained (in mM) 145 NaCl, 0.83 K2HPO4, 3.3 KH2PO4, 1.2 MgCl2, 1.2 CaCl2, 10 Glucose, 10 HEPES (pH adjusted to 7.4 with NaOH) and the apical solution contained (in mM) 145 NaGluconate, 1.2 MgCl2, 1.2 CaCl2, 10 glucose, 10 HEPES (pH adjusted to 7.4 with NaOH) and 30 μM amiloride to block the epithelial sodium channel. Forskolin (20 μM) was added to the apical surface to activate CFTR, followed by apical addition of a CFTR inhibitor cocktail consisting of BPO, GlyH-101, and CFTR inhibitor 172 (each at 20 μM final assay concentration) to specifically isolate CFTR currents. The CFTR-mediated ISC (μA/cm^2) for each condition was determined from the peak forskolin response to the steady-state current following inhibition.
The activity of the CFTR corrector compounds on the CFTR-mediated ISC was determined in Ussing chamber studies as described above. The F508del/MF-HBE cell cultures were either incubated with the corrector compounds at a range of concentrations in combination with 33 nM (6R,12R)-17-amino-12-methyl-6,15-bis(trifluoromethyl)-13,19-dioxa-3,4,18-triazatricyclo[12.3.1.12,5]nonadeca-1(18),2,4,14,16-pentaen-6-ol and 18 μM Tezacaftor or were incubated with the corrector compounds at a single fixed concentration of 1 μM in combination with 44 nM (6R,12R)-17-amino-12-methyl-6,15-bis(trifluoromethyl)-13,19-dioxa-3,4,18-triazatricyclo[12.3.1.12,5]nonadeca-1(18),2,4,14,16-pentaen-6-ol and 18 μM Tezacaftor for 18-24 hours at 37° C. and in the presence of 20% human serum. The concentration of corrector compounds with 44 nM or 33 nM (6R,12R)-17-amino-12-methyl-6,15-bis(trifluoromethyl)-13,19-dioxa-3,4,18-triazatricyclo[12.3.1.12,5]nonadeca-1(18),2,4,14,16-pentaen-6-ol and 18 μM Tezacaftor during the 18-24 hours incubations was kept constant throughout the Ussing chamber measurement of the CFTR-mediated ISC to ensure compounds were present throughout the entire experiment. The efficacy and potency of the putative F508del correctors was compared to that of the known Vertex corrector, (14S)-8-[3-(2-{Dispiro[2.0.2.1]heptan-7-yl}ethoxy)-1H-pyrazol-1-yl]-12,12-dimethyl-2λ^6-thia-3,9,11,18,23-pentaazatetracyclo[17.3.1.111,14.05,10]tetracosa-1(22),5,7,9,19(23),20-hexaene-2,2,4-trione, in combination with 18 μM Tezacaftor and 1 μM Ivacaftor.
• Assay A: 0.1 μM to 25 μM, 6 concentrations • Assay B: 0.00001 μM to 25 μM, 12 concentrations • Assay C: 0.026 μM to 25 μM, 6 concentrations • Assay D: Activity at single concentration of 1 μM

Assay [3] has the same target. Put plainly: Ussing chamber assay of CFTR-mediated short-circuit currents, Assay C (0.026 μM to 25 μM, 6 concentrations). As to conditions: with 33 nM potentiator and 18 μM Tezacaftor, 20% human serum; for Emax: read-out: C Max activity (%). The method, boiled down:
as §1

For assay [4] the target is unchanged. Put plainly: Ussing chamber assay of CFTR-mediated short-circuit currents, Assay D (single concentration of 1 μM). To be noted: with 44 nM potentiator and 18 μM Tezacaftor, 18-24 hours, 20% human serum. The method, boiled down:
as §1

T1 sequence (P13569 with tags, fused parts or gaps DEL508-508): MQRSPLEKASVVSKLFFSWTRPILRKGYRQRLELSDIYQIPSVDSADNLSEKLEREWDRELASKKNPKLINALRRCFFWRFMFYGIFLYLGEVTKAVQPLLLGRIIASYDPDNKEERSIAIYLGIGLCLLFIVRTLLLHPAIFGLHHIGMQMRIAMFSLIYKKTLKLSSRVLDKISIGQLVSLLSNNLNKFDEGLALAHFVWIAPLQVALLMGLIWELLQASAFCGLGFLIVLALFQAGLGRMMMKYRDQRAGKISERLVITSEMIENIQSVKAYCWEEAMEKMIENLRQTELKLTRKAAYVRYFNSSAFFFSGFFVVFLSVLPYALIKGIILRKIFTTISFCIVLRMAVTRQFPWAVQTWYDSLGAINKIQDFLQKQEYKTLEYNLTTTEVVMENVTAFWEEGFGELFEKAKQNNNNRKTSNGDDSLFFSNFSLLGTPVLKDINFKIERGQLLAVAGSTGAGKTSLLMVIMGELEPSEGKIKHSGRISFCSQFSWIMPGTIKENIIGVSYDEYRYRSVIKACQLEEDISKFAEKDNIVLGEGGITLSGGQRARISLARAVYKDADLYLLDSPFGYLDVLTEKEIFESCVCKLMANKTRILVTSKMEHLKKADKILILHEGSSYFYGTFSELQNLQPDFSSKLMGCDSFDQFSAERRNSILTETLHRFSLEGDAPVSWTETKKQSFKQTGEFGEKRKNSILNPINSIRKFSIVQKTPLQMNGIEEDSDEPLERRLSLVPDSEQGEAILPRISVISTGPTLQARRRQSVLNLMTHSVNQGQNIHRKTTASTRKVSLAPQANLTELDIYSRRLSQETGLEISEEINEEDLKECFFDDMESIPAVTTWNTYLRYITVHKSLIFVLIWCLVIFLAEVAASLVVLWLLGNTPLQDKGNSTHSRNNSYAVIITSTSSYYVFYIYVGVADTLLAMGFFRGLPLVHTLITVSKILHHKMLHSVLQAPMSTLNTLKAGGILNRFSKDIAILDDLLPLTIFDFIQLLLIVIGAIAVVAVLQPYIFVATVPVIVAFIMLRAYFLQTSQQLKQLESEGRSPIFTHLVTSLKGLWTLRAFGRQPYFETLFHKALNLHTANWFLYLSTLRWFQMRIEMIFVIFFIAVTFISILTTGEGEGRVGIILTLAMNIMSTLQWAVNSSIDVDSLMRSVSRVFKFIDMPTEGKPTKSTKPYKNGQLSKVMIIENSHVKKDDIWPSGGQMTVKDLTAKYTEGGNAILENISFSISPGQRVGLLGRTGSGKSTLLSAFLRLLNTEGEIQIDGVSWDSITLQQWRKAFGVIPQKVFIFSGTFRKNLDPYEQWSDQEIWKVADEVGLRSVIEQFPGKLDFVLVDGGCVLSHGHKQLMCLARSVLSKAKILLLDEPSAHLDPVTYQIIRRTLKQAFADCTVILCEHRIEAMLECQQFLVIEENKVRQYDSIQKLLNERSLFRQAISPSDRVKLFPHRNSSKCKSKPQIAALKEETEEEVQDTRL

One may read the EC50 as the midpoint of the concentration-response curve. On to `Cc1cccc(C)c1-c1cc2nc(n1)NS(=O)(=O)c1cccc(c1)C(=O)N(Cc1cnc3oc(C4CC4)cc3n1)[C@H](CCC(C)(C)C)CO2` [Compound I-24], for which the Emax in assay [1] and in assay [2] (18-24 hours) was greater than 60% throughout. Also, the EC50 in assay [1] was less than 1000 nM; in assay [2] it was 1 to 3 µM.

In the case of `Cc1cccc(C)c1-c1cc2nc(n1)NS(=O)(=O)c1cccc(c1)C(=O)N(Cc1cnc3cc(C4CC4)n(C)c3n1)[C@H](COC(C)C)CO2` [Compound I-151], the Emax in assay [2] (18-24 hours) was greater than 60%. Further, the EC50 in assay [2] fell in the range of 3 to 30 µM.

Regarding `Cc1cccc(C)c1-c1cc2nc(n1)NS(=O)(=O)c1cccc(c1)C(=O)N(Cc1cnc3oc(C4CC4)cc3n1)[C@H](CC1CC1)CO2` [Compound I-103], the Emax in assay [1] and in assay [2] (18-24 hours) was greater than 60% throughout. The concentration for a half-maximal effect (EC50) in assay [1] was less than 1000 nM; in assay [2], 1 to 3 µM.

On to `Cc1cccc(C)c1-c1cc2nc(n1)NS(=O)(=O)c1cccc(c1)C(=O)N(Cc1cnc3oc(C(C)C)cc3n1)[C@@H](CCC1(C)CC1)CO2` (stereo in doubt) [Compound I-70], for which the Emax in assay [1] and in assay [2] (18-24 hours) was greater than 60% each time. Moreover, the EC50 in assay [1] is less than 1000 nM; in assay [2] it was 3 to 30 µM.

As to `Cc1cccc(CC(C)C)c1-c1nc2nc(c1C)OC[C@@H](CC(C)(C)C)N(Cc1cnc3oc(C(C)C)cc3n1)C(=O)c1cccc(c1)S(=O)(=O)N2` (atropisomer, axis not shown) [Compound I-65], the Emax in assay [1] and in assay [2] (18-24 hours) was greater than 60% throughout. Further, the EC50 in assay [1] was less than 1000 nM; in assay [2], 1 to 3 µM.

As to `Cc1cccc(C)c1-c1cc2nc(n1)NS(=O)(=O)c1cccc(c1)C(=O)N(Cc1cnc3oc(C(C)C)cc3n1)[C@H](CC1CC1)CO2` [Compound I-57], the Emax in assay [1] and in assay [2] (18-24 hours) was greater than 60% each time. The EC50 in assay [1] was less than 1000 nM; in assay [2], 3 to 30 µM.

In the case of `Cc1cccc(C)c1-c1cc2nc(n1)NS(=O)(=O)c1cccc(c1)C(=O)N(Cc1cnc3oc(C4CCC4)cc3n1)[C@H](COC(C)C)CO2` [Compound I-138], the Emax in assay [2] (18-24 hours) was greater than 60%. Further, in assay [2], the EC50 is 3 to 30 µM.

As to `Cc1cccc(C)c1-c1cc2nc(n1)NS(=O)(=O)c1cccc(c1)C(=O)N(Cc1cnc3oc(C4CC4)cc3n1)[C@H](COC1CCCC1)CO2` [Compound I-118], the Emax in assay [2] (18-24 hours) was greater than 60%. Besides, in assay [2], the EC50 lay within 3 to 30 µM.

In the case of `Cc1cccc(CC(C)C)c1-c1nc2nc(c1C)OC[C@@H](CC(C)(C)C)N(Cc1cnc3cc(C(C)C)n(C)c3n1)C(=O)c1cccc(c1)S(=O)(=O)N2` (atropisomer, axis not shown) [Compound I-82], the Emax in assay [1] and in assay [2] (18-24 hours) was greater than 60% in each case. Also, the concentration giving a half-maximal response (EC50) was less than 1000 nM in assay [1] and less than 1 µM in assay [2].

For `Cc1cccc(C)c1-c1cc2nc(n1)NS(=O)(=O)c1cccc(c1)C(=O)N(Cc1cnc3oc(C4CC4)cc3n1)[C@H](CCC(C)C)CO2` [Compound I-130], the Emax in assay [2] (18-24 hours) is greater than 60%. Also, the EC50 in assay [2] is 3 to 30 µM.

In the case of `Cc1cccc(C)c1-c1cc2nc(n1)NS(=O)(=O)c1cccc(c1)C(=O)N(Cc1cnc3oc(C4CC4)cc3n1)[C@H](CC1CCCC1)CO2` [Compound I-61], in assay [2] (18-24 hours), the Emax was greater than 60%. In addition, the EC50 in assay [2] lay in the range of 3 to 30 µM.

With `Cc1cccc(CC(C)C)c1-c1nc2nc(c1C)OC[C@@H](CC13CC(C1)C3)N(Cc1cnc3cc(C(C)(C)C)n(C)c3n1)C(=O)c1cccc(c1)S(=O)(=O)N2` [IV-1], in assay [2], the concentration for a half-maximal effect (EC50) is less than 1 µM and the Emax is greater than 60%.

Regarding `Cc1cccc(CC(C)C)c1-c1nc2nc(c1C)OC[C@@H](CC(C)(C)C)N(Cc1cnc3cc(C(C)(C)C)n(C)c3n1)C(=O)c1cccc(c1)S(=O)(=O)N2` [Compound I-206, (5P,11R)-12-({6-tert-butyl-5-methyl-5H-pyrrolo[2,3-b]pyrazin-3-yl}methyl)-11-(2,2-dimethylpropyl)-7-methyl-6-[2-methyl-6-(2-methylpropyl)phenyl]-9-oxa-2λ^6-thia-3,5,12,19-tetraazatricyclo[12.3.1.1∧{4,8}]nonadeca-1(17),4(19),5,7,14(18),15-hexaene-2,2,13-trione], in assay [2] (18-24 hours), the “B Max activity (%)” value is “+++ (+++ is >60%)”. The EC50 in assay [2] is less than 1 µM; in assay [3], less than 1000 nM. Also, the “C Max activity (%)” value in assay [3] (18-24 hours) was “+++ (+++ is >60%)”.

As for `Cc1cccc(C)c1-c1cc2nc(n1)NS(=O)(=O)c1cccc(c1)C(=O)N(Cc1cnc3oc(C4CC4)cc3n1)[C@H](CC1CCC1)CO2` [Compound I-104, (11R)-11-(cyclobutylmethyl)-12-[(6-cyclopropylfuro[2,3-b]pyrazin-2-yl)methyl]-6-(2,6-dimethylphenyl)-2,2-dioxo-9-oxa-2λ^6-thia-3,5,12,19-tetrazatricyclo[12.3.1.14,8]nonadeca-1(18),4(19),5,7,14,16-hexaen-13-one], the Emax in assay [1] and in assay [2] (18-24 hours) was greater than 60% in each case. The EC50 in assay [1] was less than 1000 nM; in assay [2], 3 to 30 µM.

In the case of `Cc1cccc(C)c1-c1cc2nc(n1)NS(=O)(=O)c1cccc(c1)C(=O)N(Cc1cnc3nc(C4CC4)n(C)c3n1)[C@H](COC(C)C)CO2` [Compound I-139], the Emax in assay [2] (18-24 hours) is greater than 60%. In assay [2], the EC50 lay within 3 to 30 µM.

On to `Cc1cccc(C)c1-c1nc2nc(c1C)OC[C@@H](CC(C)(C)C)N(Cc1cnc3nc(C(C)C)n(C)c3n1)C(=O)c1cccc(c1)S(=O)(=O)N2` [Compound I-167], for which the Emax in assay [2] (18-24 hours) is greater than 60%. The 50% effective concentration (EC50) in assay [2] is less than 1 µM.

Consider `COCCc1c(C(C)(C)C)n(C)c2nc(CN3C(=O)c4cccc(c4)S(=O)(=O)Nc4nc(c(OC)c(-c5c(C)cccc5CC(C)C)n4)OC[C@H]3CC(C)(C)C)cnc12` (atropisomer, axis not shown) [IV-94], for which, in assay [2], the 50% effective concentration (EC50) is less than 1 µM and the Emax is greater than 60%. Also, in assay [3], the EC50 is less than 1000 nM and the Emax was greater than 60%.

Consider `Cc1cccc(C)c1-c1nc2nc(c1C)OC[C@@H](COC(C)C)N(Cc1cnc3cc(C(C)(C)C)n(C)c3n1)C(=O)c1cccc(c1)S(=O)(=O)N2` [Compound I-182], for which the “D activity at 1 μM (%)” value in assay [4] is reported as “+++ (+++ is >60%)”. In addition, the Emax in assay [2] (18-24 hours) and in assay [3] (18-24 hours) was greater than 60% throughout. Further, the concentration for a half-maximal effect (EC50) in assay [2] was less than 1 µM; in assay [3], less than 1000 nM.

As for `Cc1cccc(C)c1-c1cc2nc(n1)NS(=O)(=O)c1cccc(c1)C(=O)N(Cc1cnc3oc(C(C)C)c(C)c3n1)[C@H](CC1(C)CC1)CO2` [Compound I-17], in assay [1], the Emax is greater than 60% and the EC50 was less than 1000 nM.
